Earlier results, collected in patent US6399089B1, “Compositions and methods for regulating metabolism and balancing body weight” (priority 2000, dated 2002).
Where two headings read alike, the source gives them in different places.

Experiments:
[1] = rats
[2] = 200 mcg, after 26 weeks, obese patients, very low calorie diet

Compound: CC(=O)Oc1ccccc1C(=O)O [aspirin]
- thermogenic response of ephedrine during a meal (lean women): not lean women
- thermogenic response of ephedrine during a meal (obese women): potentiated

Compound: CN[C@@H](C)[C@H](O)c1ccccc1 [ephedrine]
- increase in energy expenditure [1]: 9%
- reduction of body fat [1]: 50%
- reduction of body weight [1]: 18%

Compound: chromium picolinate
- lean body mass [2]: increased lean body mass
